# System: C-reactive protein (CRP)
# Test: CRP (hs-CRP) in blood, CHASE clinical study
# Format: in vivo, human
# Conditions: Group Z 48 mg BID; for CRP Max / CRP Mean (SD) / CRP Median / CRP Min: V6 Week 12
# Excerpt: This is a two-part study comprising Part I and Part II. Following screening, Part I consists of a randomized, double-blind, placebo controlled dosing period of up to 12 weeks. The study shall be conducted at one or more study sites in Hawaii. Approximately 360 subjects qualified after completion of screening procedures shall be randomized in a 1:1:1 ratio to one of three treatment groups, per Table 1.
# The Part I 12-week double-blind dosing period commences with V2, including randomization and first dose of study product, and continues with study visits at Week 1-2 (V3), Week 4 (V4), Week 8 (V5), and Week 12 (V6). V6 procedures will conclude Part I.
# Blood shall be obtained at each visit for CRP. The screening specimen shall be processed at the local lab and reported to the study staff for eligibility determination; CRP samples at V7 and V8 may also be processed locally and reported directly to study staff. Samples for CRP from V2 through V6 may be batched, processed, and reported as specified in the Laboratory Manual.
# At each these visits, blood was obtained for measurement of CRP, among other parameters. Table 7A provides a summary of the CRP measurements (mg/L) at each visit and Table 7B provides a summary of the differences of CRP levels between V2 and V6.
# [1] = subjects with DM2, hypertension and hyperlipidemia but not CAD
# [2] = subjects with Diabetes Mellitus Type II
# [3] = subjects with baseline level greater than 2.0
# [4] = baseline to Week 12, all subjects
# [5] = baseline to Week 12, subjects not taking a hypertension agent
# [6] = baseline to Week 12, subjects not taking any cardiac therapeutic agent
# [7] = baseline to Week 12, subjects not taking statins
# [8] = baseline to Week 12, subjects taking an anti-diabetic agent
# [9] = baseline to Week 12, subjects with CAD
# [10] = baseline to Week 12, subjects with DM2, hypertension and hyperlipidemia but not CAD
# [11] = baseline to Week 12, subjects with Diabetes Mellitus Type II
# [12] = baseline to Week 12, subjects with baseline level greater than 2.0
# [13] = baseline to Week 12, subjects with hyperlipidemia
structure (smiles),measurement,setting,value
"CC1=C(/C=C/C(C)=C/C=C/C(C)=C/C=C/C=C(C)/C=C/C=C(C)/C=C/C2=C(C)C(=O)C(O)CC2(C)C)C(C)(C)CC(O)C1=O (stereo not drawn) [Astaxanthin, astaxanthin]",CRP Max,[1],6.14 mg/L
same,CRP Mean (SD),[1],3.38 (1.57) mg/L
same,CRP Median,[1],2.58 mg/L
same,CRP Min,[1],2.48 mg/L
same,CRP Max,[2],8.84 mg/L
same,CRP Mean (SD),[2],3.77 (2.70) mg/L
same,CRP Median,[2],2.56 mg/L
same,CRP Min,[2],0.61 mg/L
same,CRP Max,[3],8.84 mg/L
same,CRP Mean (SD),[3],3.88 (2.42) mg/L
same,CRP Median,[3],2.89 mg/L
same,CRP Min,[3],0.61 mg/L
same,CRP Max,subjects with hyperlipidemia,6.14 mg/L
same,CRP Mean (SD),subjects with hyperlipidemia,2.54 (1.29) mg/L
same,CRP Median,subjects with hyperlipidemia,2.31 mg/L
same,CRP Min,subjects with hyperlipidemia,0.61 mg/L
same,CRP V2 to V6 % Change Max,[4],81.89%
same,CRP V2 to V6 % Change Mean,[4],−8.48%
same,CRP V2 to V6 % Change Median,[4],−27.9%
same,CRP V2 to V6 % Change Min,[4],−90.9%
same,CRP V2 to V6 Change Max,[4],2.58 mg/L
same,CRP V2 to V6 Change Mean,[4],-0.87 mg/L
same,CRP V2 to V6 Change Median,[4],-0.65 mg/L
same,CRP V2 to V6 Change Min,[4],-6.07 mg/L
same,CRP V2 to V6 % Change Max,[5],−4.25%
same,CRP V2 to V6 % Change Mean (SD),[5],−30.8 (26.09) %
same,CRP V2 to V6 % Change Median,[5],−31.8%
same,CRP V2 to V6 % Change Min,[5],−56.4%
same,CRP V2 to V6 Change Max,[5],-0.11 mg/L
same,CRP V2 to V6 Change Mean (SD),[5],−1.58 (1.32) mg/L
same,CRP V2 to V6 Change Median,[5],-2.00 mg/L
same,CRP V2 to V6 Change Min,[5],-2.64 mg/L
same,CRP V2 to V6 % Change Max,[6],71.27%
same,CRP V2 to V6 % Change Mean (SD),[6],−23.7 (41.82) %
same,CRP V2 to V6 % Change Median,[6],−31.5%
same,CRP V2 to V6 % Change Min,[6],−90.9%
same,CRP V2 to V6 Change Max,[6],1.29 mg/L
same,CRP V2 to V6 Change Mean (SD),[6],−1.42 (2.01) mg/L
same,CRP V2 to V6 Change Median,[6],-1.24 mg/L
same,CRP V2 to V6 Change Min,[6],-6.07 mg/L
same,CRP V2 to V6 % Change Max,[7],19.13%
same,CRP V2 to V6 % Change Mean (SD),[7],−14.9 (28.11) %
same,CRP V2 to V6 % Change Median,[7],−17.6%
same,CRP V2 to V6 % Change Min,[7],−56.4%
same,CRP V2 to V6 Change Max,[7],0.80 mg/L
same,CRP V2 to V6 Change Mean (SD),[7],−0.81 (1.42) mg/L
same,CRP V2 to V6 Change Median,[7],-0.71 mg/L
same,CRP V2 to V6 Change Min,[7],-2.64 mg/L
same,CRP V2 to V6 % Change** Max,[8],81.89%
same,CRP V2 to V6 % Change** Mean (SD),[8],−16.9 (49.24) %
same,CRP V2 to V6 % Change** Median,[8],−30.7%
same,CRP V2 to V6 % Change** Min,[8],−90.9%
same,CRP V2 to V6 Change Max,[8],2.58 mg/L
same,CRP V2 to V6 Change Mean (SD),[8],−1.18 (2.36) mg/L
same,CRP V2 to V6 Change Median,[8],-1.14 mg/L
same,CRP V2 to V6 Change Min,[8],-6.07 mg/L
same,CRP V2 to V6 % Change Max,[9],81.89%
same,CRP V2 to V6 % Change Mean (SD),[9],−28.8 (65.35) %
same,CRP V2 to V6 % Change Median,[9],−39.7%
same,CRP V2 to V6 % Change Min,[9],−90.9%
same,CRP V2 to V6 Change Max,[9],1.04 mg/L
same,CRP V2 to V6 Change Mean (SD),[9],−1.91 (2.67) mg/L
same,CRP V2 to V6 Change Median,[9],-1.24 mg/L
same,CRP V2 to V6 Change Min,[9],-6.07 mg/L
same,CRP V2 to V6 % Change Max,[10],−4.25%
same,CRP V2 to V6 % Change Mean (SD),[10],−32.6 (18.99) %
same,CRP V2 to V6 % Change Median,[10],−30.7%
same,CRP V2 to V6 % Change Min,[10],−50.4%
same,CRP V2 to V6 Change Max,[10],-0.11 mg/L
same,CRP V2 to V6 Change Mean (SD),[10],−1.87 (1.24) mg/L
same,CRP V2 to V6 Change Median,[10],-2.37 mg/L
same,CRP V2 to V6 Change Min,[10],-3.24 mg/L
same,CRP V2 to V6 % Change Max,[11],81.89%
same,CRP V2 to V6 % Change Mean (SD),[11],−14.7 (47.59) %
same,CRP V2 to V6 % Change Median,[11],−29.3%
same,CRP V2 to V6 % Change Min,[11],−90.9%
same,CRP V2 to V6 Change Max,[11],2.58 mg/L
same,CRP V2 to V6 Change Mean (SD),[11],−1.01 (2.32) mg/L
same,CRP V2 to V6 Change Median,[11],-0.90 mg/L
same,CRP V2 to V6 Change Min,[11],-6.07 mg/L
same,CRP V2 to V6 % Change Max,[12],48.77%
same,CRP V2 to V6 % Change Mean (SD),[12],−24.8 (35.03) %
same,CRP V2 to V6 % Change Median,[12],−31.1%
same,CRP V2 to V6 % Change Min,[12],−90.9%
same,CRP V2 to V6 Change Max,[12],2.58 mg/L
same,CRP V2 to V6 Change Mean (SD),[12],−1.37 (2.11) mg/L
same,CRP V2 to V6 Change Median,[12],-1.54 mg/L
same,CRP V2 to V6 Change Min,[12],-6.07 mg/L
same,CRP V2 to V6 % Change Max,[13],81.89%
same,CRP V2 to V6 % Change Mean (SD),[13],−13.6 (49.58) %
same,CRP V2 to V6 % Change Median,[13],−30.7%
same,CRP V2 to V6 % Change Min,[13],−90.9%
same,CRP V2 to V6 Change Max,[13],1.29 mg/L
same,CRP V2 to V6 Change Mean (SD),[13],−1.24 (1.95) mg/L
same,CRP V2 to V6 Change Median,[13],-1.14 mg/L
same,CRP V2 to V6 Change Min,[13],-6.07 mg/L
